The values that follow come from US9133439B2, “Differentiation of human embryonic stem cells” (Janssen Biotech, Inc., priority 2009, dated 2015).

This assay deals with H1 human embryonic stem cells (differentiated). The class given is cell-based. The note with it: ratio for well treated with individual compound relative to average of wells with DMSO alone.
As for `Cc1ccc(NC(=O)c2cccc(N(C)C)c2)cc1NC(=O)c1ccc(O)cc1` [ZM 336372], the “Total Nuclei” value worked out at 1.06.

`CN[C@@H]1C[C@H]2O[C@@](C)([C@@H]1OC)n1c3ccccc3c3c4c(c5c6ccccc6n2c5c31)C(=O)NC4` [Staurosporine]: the “Total Nuclei” value is 0.13.

Regarding `N#CC(C#N)=Cc1ccc(O)c(O)c1` [Tyrphostin 23], the “Total Nuclei” value was 1.03.

`Cc1ccc(-c2nn(C(C)(C)C)c3ncnc(N)c23)cc1` [PP1]: the “Total Nuclei” value was 0.99.

For the molecule `CC(C)c1cc(/C=C(\C#N)C(=O)NCCCc2ccccc2)cc(C(C)C)c1O` [SU1498], the “Total Nuclei” value came to 1.01.

On to `Nc1ncc2[nH]cnc2n1` [2-Aminopurine], for which the “Total Nuclei” value is 1.07.

Consider `N#CC(C#N)=Cc1cc(O)c(O)c([N+](=O)[O-])c1` [Tyrphostin AG 1288], for which the “Total Nuclei” value was determined as 1.04.

For `COC(=O)/C=C/c1cc(O)ccc1O` [Erbstatin analog], the “Total Nuclei” value is listed as 0.82.

As for `Nc1ncnc2c1c(I)cn2[C@@H]1O[C@H](CO)[C@@H](O)[C@H]1O` [5-Iodotubercidin], the “Total Nuclei” value came out at 0.08.

Consider `Cc1cc2ncc(-c3ccccc3)nc2cc1C` [Tyrphostin AG 1295], for which the “Total Nuclei” value is on record as 1.08.

`CC(C)(C)c1cc(/C=C(\C#N)C(N)=S)cc(C(C)(C)C)c1O` [AG-879]: the “Total Nuclei” value was 1.03.

With `O=C(O)c1cc(NCc2cc(O)ccc2O)ccc1O` [HDBA, 2-Hydroxy-5-(2,5-dihydroxybenzylamino)benzoic acid], the “Total Nuclei” value stood at 0.99.

`CC(C)n1cnc2c(NCc3ccccc3)nc(NCCO)nc21` [N9-Isopropyl-olomoucine]: the “Total Nuclei” value turned out to be 1.05.

Consider `C[C@@H](N)[C@H]1CC[C@H](C(=O)Nc2ccncc2)CC1` [Y-27632], for which the “Total Nuclei” value is given as 1.08.

Consider `O=C(O)c1ccc2nc(-c3ccccc3)c(-c3ccccc3)nc2c1` [BML-257], for which the “Total Nuclei” value was found to be 0.98.

Regarding `CO[C@H]1C[C@@H]2CC[C@@H](C)[C@@](O)(O2)C(=O)C(=O)N2CCCC[C@H]2C(=O)O[C@H]([C@H](C)C[C@@H]2CC[C@@H](O)[C@H](OC)C2)CC(=O)[C@H](C)/C=C(\C)[C@@H](O)[C@@H](OC)C(=O)[C@H](C)C[C@H](C)/C=C/C=C/C=C/1C` [Rapamycin], the “Total Nuclei” value is recorded as 0.47.

Consider Indirubin-3′-monoxime, for which the “Total Nuclei” value is 0.96.

For the molecule `N#C/C(=C\c1ccc(O)c(O)c1)C(N)=S` [Tyrphostin 47], the “Total Nuclei” value is on record as 1.00.

For the molecule `CC[C@H](CO)Nc1nc(NCc2ccccc2)c2ncn(C(C)C)c2n1` [Roscovitine], the “Total Nuclei” value worked out at 1.03.

With `N#C/C(=C\c1cc(Cl)cc(Cl)c1)c1cccnc1` [RG-14620], the “Total Nuclei” value is 1.02.

`O=P(O)(O)C(O)c1ccc2ccccc2c1` (stereo not shown) [HNMPA, Hydroxy-2-naphthalenylmethylphosphonic acid]: the “Total Nuclei” value was 1.01.

With `Cn1cnc2nc(NCCO)nc(NCc3ccccc3)c21` [iso-Olomoucine], the “Total Nuclei” value was 1.04.

Regarding `C/C(O)=C(\C#N)C(=O)Nc1cc(Br)ccc1Br` [LFM-A13], the “Total Nuclei” value was 0.97.

As for `COC[C@H]1OC(=O)c2coc3c2[C@@]1(C)C1=C(C3=O)[C@@H]2CCC(=O)[C@@]2(C)C[C@H]1OC(C)=O` [Wortmannin], the “Total Nuclei” value was determined as 1.10.

For the molecule `CC(=O)c1c(O)c(C)c(O)c(Cc2c(O)c3c(c(C(=O)/C=C/c4ccccc4)c2O)OC(C)(C)C=C3)c1O` [Rottlerin], the “Total Nuclei” value is on record as 0.24.

As for `CC1=C(O)C(=O)[C@@H]2O[C@@H]2C1=O` [Terreic acid], the “Total Nuclei” value was 1.02.

Take `COCc1cc(O)c(O)c(O)c1-c1c(COC)cc(O)c(O)c1O` [HBDDE, 2,2′,3,3′,4,4′-Hexahydroxy-1,1′-biphenyl-6,6′-dimethanol dimethyl ether]: the “Total Nuclei” value is on record as 1.07.

Consider `CS(=O)(=O)O.Cn1cc(C2=C(c3cn(CCCSC(=N)N)c4ccccc34)C(=O)NC2=O)c2ccccc21` [Ro 31-8220], for which the “Total Nuclei” value is 0.09.
